Patent US20070123586A1, “Nitroso derivatives of diphenylamine” (priority 2003, published 2007)

How the values were obtained:
[1] = Spontaneous nitric oxide release: nitrites+nitrates titrated by Griess colorimetry with nitrate reductase; details: test product final concentration 150 μM, incubated four hours at 37° C., pH 7.5 PBS buffer, Griess reagent, OD 540 nm
Experimental: A solution of a compound of the invention of the formula I spontaneously releases nitric oxide. The nitrite ions resulting therefrom are titrated by colorimetry by means of a specific reagent (Griess). To take account of any release of nitrate ions in addition to the nitrite ions, bacterial nitrate reductase is added to the reaction medium, which makes it possible to reduce the nitrate ions formed.
The reactions and measurements are performed in transparent 96-well plates. The test products are dissolved extemporaneously at a concentration of 3 mM in dimethyl sulfoxide. 95 μl of a reagent comprising nitrate reductase (0.18 U/ml in 0.100 mM pH 7.5, PBS buffer, β-NADPH 210 μM, FAD 5 μM) and 5 μl of the solution of the test product (final concentration of 150 μM) are then introduced into each well. After stirring, the mixture is incubated for four hours at 37° C. The reaction is then quenched by addition of 100 μl of the Griess reagent (Sigma G4410). This reagent is left to act for five minutes at room temperature, and the optical density is then read at 540 nm. This value is proportional to the concentration of nitrites+nitrates in the medium. A calibration range is made for each plate using NaNO2.
The results are expressed in μmol/l (μM) of nitrites+nitrates released in Table I for some of the compounds of the formula I illustrated below.

[2] = tested on: Human LDLs; assay: Antioxidant effect: cupric ion-induced oxidation of human LDL (fluorescence); format: biochemical; details: human LDL 120 μg/ml, CuCl2, 37° C., fluorescence difference 2 h vs 24 h, from three concentrations
Experimental: Human LDLs placed in aqueous solution in the presence of cupric ions, become spontaneously oxidized on their protein component, apolipoprotein-B. This oxidation makes the particle fluorescent, which is exploited to measure a pharmacological effect.
The reactions and measurements are performed in black 96-well plates. 10 μl of a solution of the test product dissolved in dimethyl sulfoxide are first mixed with 170 μl of a solution of human LDL at a concentration of 120 μg/ml and 20 μl of 100 μM CuCl2. After stirring, the mixture is incubated for 2 hours at 37° C., and a first fluorescence reading is taken (excitation at 360 nm, reading at 460 nm). The mixture is then incubated for a further 22 hours, to take a second reading under the same conditions. The difference is proportionately smaller the greater the antioxidant power of the test product. Probucol is used as reference product at a concentration of 10 μM.
The concentrations that inhibit 50% (IC50) of the oxidation are prepared from three concentrations of the test product. They are given in Table II below for some of the compounds of the formula I given as examples below.

[3] = tested on: fatty Zucker rats; assay: Hypotriglyceridaemiant activity in fatty Zucker rats; format: in vivo, rat; details: 9-week-old male Zucker rats, 200 mg/kg/day p.o. for eight days, after fasting four hours
Experimental: The compounds were tested on fatty Zucker rats (Zucker L. M. et al., 1961, Fatty a new mutation in the rat, J. Hered., 52: 275-278). This animal is hyperphagic, obese and hyperinsulinaemic. It develops resistance to insulin, it is hyperlipidaemic, and has a large hypertriglyceridaemia.
9-week-old male Zucker rats were treated for eight days with the compounds of Example 2 and Example 5 at a dose of 200 mg/kg/day p.o. After fasting for four hours, a blood sample is taken to recover the plasma. […] The compound of Example 5 has a 21% […] effect (p<0.05) and reduces insulin by 45% (p<0.05).

| SMILES | Nitrites—Nitrates released [1] | melting point | IC50 [2] | reduction in triglycerides (plasma) [3] | reduction of insulinaemia (plasma insulin) [3] |
| --- | --- | --- | --- | --- | --- |
| COc1ccc(N(N=O)c2ccc(C(=O)O)cc2)cc1 [Example 2, 4-[(4-Methoxyphenyl)(nitroso)amino]benzoic acid] | 87 µM | 169 to 171 °C | 17 µM | 58% | 47% |
| O=NN(c1ccc(C(=O)O)cc1)c1ccc(C(F)(F)F)cc1 [Example 5, 4-{Nitroso[4-(trifluoromethyl)phenyl]amino}benzoic acid] | 108 µM | – | – | 21% | 45% |
| COc1ccc(N(N=O)c2ccc(C#N)cc2)cc1 [Example 6, 4-[(4-Methoxyphenyl)(nitroso)amino]benzonitrile] | 43 µM | 88 to 90 °C | – | – | – |
| COc1ccc(N(N=O)c2ccc(CO)cc2)cc1 [Example 8, {4-[(4-Methoxyphenyl)(nitroso)amino]phenyl}methanol] | 88 µM | – | 18.4 µM | – | – |
| CCOC(=O)c1ccc(N(N=O)c2ccc(C#N)cc2)cc1 [Example 10] | 76 µM | – | 6.2 µM | – | – |
| CCOC(=O)c1ccc(N(N=O)c2ccc(S(C)(=O)=O)cc2)cc1 [Example 12] | 38 µM | – | – | – | – |
| O=NN(c1ccc(C(=O)O)cc1)c1ccc([N+](=O)[O-])cc1 [Example 13] | 86 µM | – | 4.6 µM | – | – |
| N#Cc1ccc(N(N=O)c2ccc(C(=O)O)cc2)cc1 [Example 14] | 69 µM | – | – | – | – |
| CS(=O)(=O)c1ccc(N(N=O)c2ccc(C(=O)O)cc2)cc1 [Example 15] | 88 µM | – | – | – | – |
| COc1ccc(N(N=O)c2ccc(CC(=O)O)cc2)cc1 [Example 17] | 58 µM | – | 11.6 µM | – | – |
| COc1ccc(N(N=O)c2ccc(C(C)=O)cc2)cc1 [Example 18] | 81 µM | – | – | – | – |
| O=NN(c1ccc(F)cc1)c1ccc(C(=O)O)cc1 [Example 19] | 79 µM | – | – | – | – |
| O=NN(c1ccc(C(=O)O)cc1)c1ccc(C(=O)O)cc1 [Example 30, 4,4′-(Nitrosoimino)dibenzoic acid] | 58 µM | – | – | – | – |
| COc1ccc(N(N=O)c2ccc(C(N)=O)cc2)cc1 [Example 42] | 79 µM | – | – | – | – |
